SMILES strings stand for the structures.

A short description of this assay: Compound was tested for the binding affinity and selectivity by competitive inhibition of radioligands on opioid delta receptor in guinea pig brain membranes.

As for `CN(C(=O)Cc1ccc(Cl)c(Cl)c1)[C@H](CN1CCCC1)c1cccc(NC(=O)[C@@H](N)CC(=O)O)c1` [(S)-3-Amino-N-[3-((S)-1-{[2-(3,4-dichloro-phenyl)-acetyl]-methyl-amino}-2-pyrrolidin-1-yl-ethyl)-phenyl]-succinamic acid], the Ki came to 1070 nM.

`CN(C(=O)Cc1ccc(Cl)c(Cl)c1)[C@H](CN1CCCC1)c1cccc(NC(=O)[C@H](N)CC(=O)O)c1` [(R)-3-Amino-N-[3-((S)-1-{[2-(3,4-dichloro-phenyl)-acetyl]-methyl-amino}-2-pyrrolidin-1-yl-ethyl)-phenyl]-succinamic acid] returned a Ki of 573 nM.

In general, Ki refers to a measure of affinity in units of concentration, obtained from inhibition or displacement.

Values taken from BindingDB's records for doi:10.1021/jm960459x (University of Minnesota, 1996).
